Data on 9 compounds can be found in US10865216B2, “Tricyclic Gyrase inhibitors” (MERCK SHARP & DOHME CORP., priority 2012, dated 2020).

Common to all, as to type: cell-based
Assay [1] deals with P. aeruginosa ATCC 15692. Description: MIC, P. aeruginosa ATCC 15692. The following applies: for PA MIC: Table 17, comparative, new species of R2; for Pa MIC: Table 10, Pa = P. aeruginosa.
Assay [2] relates to S. aureus ATCC 13709. Description: MIC, S. aureus ATCC 13709. The following applies: for SA MIC: Table 17, comparative, new species of R2; for MIC Sa: S. aureus, Alamar Blue read after overnight incubation at 35° C.; for Sa MIC: Table 10, Sa = S. aureus.
Assay [3] deals with S. pneumoniae ATCC 51916. The assay is described as follows: MIC, S. pneumoniae ATCC 51916. The following applies: for Spn52 MIC: Table 17, comparative, Spn52 not defined; for Spn MIC: Table 10, Spn = S. pneumoniae.
Assay [4] concerns A. baumannii ATCC 19606. Description: MIC, A. baumannii ATCC 19606. The following applies: Table 10; Ab = A. baumannii, strain not stated.
The subject of assay [5] is K. pneumoniae ATCC 700603. The assay is described as follows: MIC, K. pneumoniae ATCC 700603. The following applies: Table 10; Kpn = K. pneumoniae.
The test system of assay [6] is F. tularensis holarctica LVS. Description: microbe, parasite or virus in culture. The following applies: Table 10; Ft = F. tularensis, strain not stated.
Assay [7] has as its system Y. pestis CO92 pgm-. The following applies: Table 10.
In assay [8] the test system is E. coli ATCC 25922. The assay is described as follows: MIC, E. coli ATCC 25922. The following applies: for MIC Ec: E. coli, Alamar Blue read after overnight incubation at 35° C.; for Ec MIC: Table 10, Ec = E. coli, strain not stated. (The colour change of resazurin is a common sign of viable cells or microbes.)
Assay [9] concerns B. thailandensis ATCC E264. The assay is described as follows: microbe, parasite or virus in culture.

In [1], `CNc1cc(F)cc2c1[nH]c1nc(Oc3cnc(C)nc3)nc(C3C[C@H]4CCN[C@H]4C3)c12` (stereo partly drawn) came in with a PA MIC of 2 µg/mL. This compound gave an SA MIC in [2] of less than 0.03 µg/mL. The Spn52 MIC in [3] is less than 0.03 µg/mL.

`CNc1cc(F)cc2c1[nH]c1nc(Oc3cnc(C)nc3)nc(N3C[C@H]4C[C@@H]3C[C@H]4N)c12` returned a PA MIC in assay [1] of 1 µg/mL. This compound registered an SA MIC in [2] not above 0.016 µg/mL. Moreover, the Spn52 MIC in assay [3] is not above 0.016 µg/mL.

In turn, `CNc1cc(F)cc2c1[nH]c1nc(Oc3cnc4ccnn4c3)nc(N3C[C@H]4C[C@@H]3C[C@H]4N)c12` showed a PA MIC in assay [1] of 0.5 µg/mL. In addition, the SA MIC in [2] is not above 0.016 µg/mL. Besides, the Spn52 MIC in assay [3] is not above 0.001 µg/mL.

Turning to `CNc1cc(F)cc2c1[nH]c1nc(Oc3cnc4cccnc4c3)nc(N3CC4C(N)C4C3)c12` (stereo not drawn) [Compound 4.035], the “Ab MIC” value in [4] is not above 0.5 µg/mL. Further, the “Kpn MIC” value in assay [5] amounted to 2 µg/mL. Moreover, in [1], the “Pa MIC” value is 4 µg/mL. For the same compound, in [2], the “MIC Sa” value was not above 0.5 µg/mL and the “Sa MIC” value is not above 0.5 µg/mL. The “Ft MIC” value in assay [6] stood at 1 µg/mL. The “Yp MIC” value in assay [7] was not above 0.5 µg/mL. Besides, in assay [8], the “MIC Ec” value is not above 0.5 µg/mL and the “Ec MIC” value was not above 0.5 µg/mL. The “Bt MIC” value in assay [9] is not above 0.5 µg/mL. The “Spn MIC” value in assay [3] was not above 0.5 µg/mL.

`CNc1cc(F)cc2c1[nH]c1nc(Oc3cnc4cccnc4c3)nc(N3CC4(CCC4N)C3)c12` (stereo not drawn) [Compound 4.045]: the “Ab MIC” value in [4] is not above 0.5 µg/mL. Moreover, in assay [5], the “Kpn MIC” value was found to be 8 µg/mL. Besides, the “Pa MIC” value in assay [1] was determined as 4 µg/mL. In assay [2], the “MIC Sa” value was not above 0.5 µg/mL and the “Sa MIC” value is not above 0.5 µg/mL. In addition, the “Ft MIC” value in assay [6] was 2 µg/mL. In addition, in assay [7], the “Yp MIC” value was not above 0.5 µg/mL. In addition, in assay [8], the “MIC Ec” value was not above 0.5 µg/mL and the “Ec MIC” value was not above 0.5 µg/mL. In addition, the “Bt MIC” value in assay [9] was determined as 1 µg/mL. The “Spn MIC” value in [3] was not above 0.5 µg/mL.

For `CNc1cc(F)cc2c1[nH]c1nc(Oc3cnc(C)nc3)nc(N3CCC4(CC4N)C3)c12` (stereo not drawn) [Compound 4.066], the “Ab MIC” value in assay [4] is not above 0.5 µg/mL. The “Kpn MIC” value in assay [5] stood at 2 µg/mL. Moreover, in assay [1], the “Pa MIC” value was 2 µg/mL. In assay [2], the “MIC Sa” value was not above 0.5 µg/mL and the “Sa MIC” value is not above 0.5 µg/mL. Also, the “Ft MIC” value in [6] was 1 µg/mL. Further, the “Yp MIC” value in [7] was not above 0.5 µg/mL. Moreover, in [8], the “MIC Ec” value is not above 0.5 µg/mL and the “Ec MIC” value was not above 0.5 µg/mL. Moreover, the “Bt MIC” value in assay [9] was not above 0.5 µg/mL. Further, the “Spn MIC” value in assay [3] was not above 0.5 µg/mL.

With `CNc1cc(F)cc2c1[nH]c1nc(Oc3cnc(C)nc3)nc(N3CC(N)C4(CC4)C3)c12` (stereo not drawn) [Compound 4.069], the “Ab MIC” value in [4] was not above 0.5 µg/mL. In addition, in [5], the “Kpn MIC” value was 2 µg/mL. Further, the “Pa MIC” value in [1] was 4 µg/mL. Also, in assay [2], the “MIC Sa” value was not above 0.5 µg/mL and the “Sa MIC” value was not above 0.5 µg/mL. Also, the “Ft MIC” value in assay [6] stood at 2 µg/mL. In assay [7], the “Yp MIC” value was not above 0.5 µg/mL. In assay [8], the “MIC Ec” value was not above 0.5 µg/mL and the “Ec MIC” value was not above 0.5 µg/mL. Further, the “Bt MIC” value in assay [9] was not above 0.5 µg/mL. The “Spn MIC” value in assay [3] is not above 0.5 µg/mL.

Turning to `CNc1cc(F)cc2c1[nH]c1nc(Oc3cnc(C)nc3)nc(N3CC4NCCC4(C)C3)c12` (stereo not drawn) [Compound 4.157], in assay [4], the “Ab MIC” value is not above 0.5 µg/mL. For the same compound, the “Kpn MIC” value in [5] was found to be 4 µg/mL. Further, in [1], the “Pa MIC” value came out at 8 µg/mL. Further, in [2], the “MIC Sa” value was not above 0.5 µg/mL and the “Sa MIC” value is not above 0.5 µg/mL. In addition, in assay [8], the “MIC Ec” value was not above 0.5 µg/mL and the “Ec MIC” value is not above 0.5 µg/mL. Further, the “Spn MIC” value in assay [3] was not above 0.5 µg/mL.

For `CNc1cc(F)cc2c1[nH]c1nc(Oc3cnc(C(C)O)nc3)nc(N3CC4(CCC4N)C3)c12` (stereo not drawn) [Compound 4.410], the “Ab MIC” value in assay [4] stood at 2 µg/mL. Also, the “Kpn MIC” value in assay [5] came to 2 µg/mL. Moreover, the “Pa MIC” value in [1] was 1 µg/mL. For the same compound, in assay [2], the “MIC Sa” value was not above 0.5 µg/mL and the “Sa MIC” value is not above 0.5 µg/mL. Also, in assay [8], the “MIC Ec” value was not above 0.5 µg/mL and the “Ec MIC” value is not above 0.5 µg/mL. In addition, in assay [3], the “Spn MIC” value was not above 0.5 µg/mL.
